Experimental data: ChEMBL document CHEMBL3988442, “University of Dundee, Small-Polar-MMV Screening Library” (2021)

Columns and labels:
[1] = microbe, parasite or virus in culture; conditions: Mycobacterium tuberculosis, 96 h, read-out: pIC50 (converted)
[2] = microbe, parasite or virus in culture; conditions: Mycobacterium tuberculosis, 72 h, read-out: pIC50 (converted)

Compound | IC50 [1] [µM] | IC50 [2] [µM]
CC(=O)c1ccccc1NC(=O)CN1CC[C@H](N)C1 | > 501 | 158
CCCOc1cc(C)ccc1NC(=O)Cn1cnnn1 | > 501 | 273
NCc1ccncc1OCC(F)(F)F | > 501 | > 501
Nc1cnn(Cc2ccccn2)c1 | > 501 | 206
CC(C)CC(C)Oc1cc(CN)ccn1 (centres undefined) | > 501 | > 501
CC(=O)c1ccc(Cl)c(S(=O)(=O)NC(CN)C2CC2)c1 (centres undefined) | 111 | 116
CC(C)C(NCC(N)=O)c1ccc(F)cc1 (centres undefined) | > 501 | > 501
COC(=O)CNc1ccccc1 | 123 | 463
CN(Cc1cccnc1)C(=O)c1cc(Cl)c[nH]1 | 333 | 281
Nc1ccc(CNc2ccc(C(F)(F)F)nn2)cn1 | > 501 | > 501
O=C(NC1CC1)N1CCN(c2ncccc2Cl)CC1 | > 501 | > 501
CCN(CCO)Cc1cc(-c2cccs2)on1 | > 501 | 145
COc1ncccc1C(=O)NCCc1cccs1 | 285 | 347
COCc1nn(Cc2cccc3cccnc23)c(=O)o1 | 51.6 | 16.8
NC1CCN(c2ccc(C(F)(F)F)cn2)CC1 | 139 | 91.6
CN(Cc1ccncc1)S(=O)(=O)c1cccs1 | > 501 | 116
COC(=O)C(O)CNc1ccc(C(F)(F)F)cn1 (centres undefined) | > 501 | > 501
CC(C)(C)OCCOc1ccc(OCCO)cc1 | 161 | 101
COc1cc(F)cc(NCC(=O)NCc2ccco2)c1 | 32.7 | 35
CCCOC(=O)C(C)NC(=O)c1cccs1 (centres undefined) | 287 | 249
CCC(=O)c1ccc(CN)cc1 | 264 | > 501
Cc1cnn(CCNCc2ccc3c(c2)OCCO3)c1 | 211 | 127
Cc1[nH]c2ccc(C(N)=O)cc2c1C | 41.9 | 20.8

Compound | IC50 [1] [µM] | IC50 [2] [µM]
Cc1ccc(NC(=O)Cn2ccnc2)cc1 | 171 | 159
COCCCNC(=O)c1coc(Br)c1 | 116 | 118
NC(=O)CC1CCCC1 | > 501 | > 501
NC(=O)NC(=O)CCN1CCCc2c(Br)cccc2C1 | 96 | 48
CC(N)CCc1ccc2c(c1)OCO2 (centres undefined) | 274 | 185
O=C(c1ccccn1)N1CCC2(CCCC2)CC1 | 160 | 245
CCC1CN(C(=O)c2ccc3ccccc3n2)CCO1 (centres undefined) | > 501 | 97.4
OCC(O)CSCCc1ccccc1Cl (centres undefined) | 473 | 136
CCS(=O)(=O)NCCOc1ccc2c(c1)OCO2 | 204 | 230
OCCCN1CCC(=Cc2ccccc2)CC1 | 250 | 277
COCc1ccc(C(=O)NCc2cccc(F)c2)o1 | 35.8 | 59.4
COCCN(C)CCNC(=O)c1ccc(Cl)cc1 | > 501 | 165
CNC1CCN(c2cc(OC)cc(OC)c2)C1 (centres undefined) | 225 | 309
COc1ccc(CC2CCN2)cc1 (centres undefined) | 250 | 212
Cc1nc(C(=O)NCc2cccs2)ccc1C#N | 64.4 | 82.4
CCOc1cccc(CCN)n1 | > 501 | 234
CCS(=O)(=O)NCCSc1nc2cc(F)c(F)cc2[nH]1 | 448 | 468
CC(C)NC(=O)Nc1cccc(S(=O)(=O)C(F)F)c1 | 219 | 264
NC(=O)C(N)c1ccc2c(c1)OCCO2 (centres undefined) | > 501 | > 501
N#Cc1c(F)cccc1NCCSCCCO | 67.1 | 102
COCCCNC(=O)c1ccn(-c2ccc(F)cc2)n1 | 154 | 114
c1ccc(NC2CCN(C3CCCC3)C2)nc1 (centres undefined) | > 501 | > 501
Cc1cc(C)cc(OCCNC(=O)CSCC(N)=O)c1 | > 501 | 139

Compound | IC50 [1] [µM] | IC50 [2] [µM]
CCC(=O)c1cccc(S(=O)(=O)NC(CN)C2CC2)c1 (centres undefined) | > 501 | > 501
CNC(=O)C(C)Sc1nnnn1-c1ccccc1C (centres undefined) | 213 | 210
Cc1ccc(NC(=O)NCCS(=O)(=O)N(C)C)cc1Cl | 401 | 205
Cc1ccc(C2CCCN2CCS(C)(=O)=O)s1 (centres undefined) | > 501 | 205
O=C(CCN1CCCC1)N1CCc2ccccc21 | > 501 | 391
COc1ccccc1C(C)NC(=O)Cn1cc(C)cn1 (centres undefined) | > 501 | 226
CCCOc1ccc(CNC(=O)c2cc[nH]n2)cn1 | > 501 | 114
Brc1cncc(NCc2ncc[nH]2)c1 | > 501 | 475
CN(C)S(=O)(=O)NCCNc1ccc2ccccc2n1 | 326 | 419
CCSCCOc1ccc(CO)nc1 | > 501 | 216
CN1C(=O)c2ccc(C(=O)NC3CC3)cc2C1=O | > 501 | > 501
Cc1ncc(Cn2cc(F)ccc2=O)s1 | > 501 | > 501
CC(C)C[C@H](N)C(=O)N(C)c1ccccc1 | 225 | 242
N#Cc1ccc(C(=O)NCC2CC2)cc1 | 123 | 123
CC(C)c1cccc(S(=O)(=O)NCCCN)c1 | > 501 | 195
O=C(CNc1ccccc1F)N1CCCCC1 | 36.6 | 71.6
NS(=O)(=O)c1ccc(NC(=O)Cn2ccnc2)cc1 | > 501 | > 501
CCC(N)c1ccccc1OC (centres undefined) | > 501 | 267
NCC1CCCN1CCc1ccccc1 (centres undefined) | > 501 | > 501
COCCN(C)CCNC(=O)c1cc2ccccc2[nH]1 | > 501 | > 501
CCc1nc(CCN)cs1 | 152 | 113
CC(C)CCNC(=O)Cn1c(=O)oc2ccccc21 | 274 | 401
Cc1csc(CCN)n1 | > 501 | > 501

Compound | IC50 [1] [µM] | IC50 [2] [µM]
CCOC(=O)c1ccc(CN2CCOCC2)cn1 | > 501 | > 501
NCc1cccc(-c2nc(-c3ccncc3)no2)c1 | 286 | > 501
CC(C)(C)OC(=O)N1CCN(c2ccnc(N)c2)CC1 | > 501 | > 501
CCCc1cc(CN(C)C(=O)c2cccs2)n[nH]1 | 437 | 293
CCC(C)NC(=O)Cc1ccc2c(c1)OCCO2 (centres undefined) | > 501 | > 501
CCOCCOc1cc(C)ccc1CN | > 501 | 208
O=C(CSc1ccc(F)cc1)N1CCC1 | > 501 | 180
CC(Sc1nc2ccccc2o1)C(=O)N1CCOCC1 (centres undefined) | 11.7 | 19.2
C=C(C)CN1CCC(NC(=O)N2CCSCC2)CC1 | > 501 | > 501
COc1ccccc1NC(=O)c1ccc(C)nc1 | > 501 | > 501
COC(=O)CSc1nc(N)c2ccsc2n1 | > 501 | 250
N#Cc1cccc(C(=O)OCCCn2cccn2)c1 | > 501 | > 501
CN(CC(=O)N1CCOCC1)Cc1cc(Br)cs1 | 55.2 | 114
Cc1noc(CNC(CCO)C(C)C)n1 (centres undefined) | > 501 | > 501
OCCCC(Nc1ccccn1)c1ccccc1 (centres undefined) | 111 | 109
CCC(N)C(=O)Nc1ccc2c(c1)CCC2 (centres undefined) | 176 | 170
Clc1cncc(NCC2CN(C3CC3)CCO2)n1 (centres undefined) | 311 | 259
O=S(=O)(CCNc1cncc(Cl)n1)N1CCSCC1 | 215 | 252
Cc1cc(Br)cc(C(=O)NCc2nccc(N)n2)c1 | > 501 | > 501
COc1ccc([S+]([O-])Cc2noc(C)n2)cc1 (centres undefined) | 143 | 206
CCC(C)C(=O)NCCNc1ccc(C(F)(F)F)cn1 (centres undefined) | 57.7 | 51.5
c1ccc2c(N3CCNCC3)cncc2c1 | 290 | 460
NCc1ccc(Cl)cn1 | 249 | 324

Compound | IC50 [1] [µM] | IC50 [2] [µM]
Cc1ccc(C(=O)NCCNS(=O)(=O)C(C)C)cc1F | > 501 | 155
COc1cc(C(=O)NCC2CCC2)cc2c1OCCO2 | 321 | 245
O=C(NCc1ccco1)Nc1nc2c(s1)COCC2 | > 501 | > 501
O=C(c1cccc(F)c1)N1CCN(c2nccs2)CC1 | > 501 | 228
OCCCNc1cccc(Cl)c1-n1cccn1 | > 501 | 183
CC(C)C(C)(C#N)NC(=O)CNc1cccc(F)c1 (centres undefined) | 292 | 307
CCc1ccc(C(=O)NCc2ccccn2)o1 | 138 | 40.5
CC(=O)Nc1ccc(N2CCCCC2)nc1 | 95.3 | 97.2
NCCCc1cccc(F)c1 | > 501 | 74
COc1ccccc1CN1CCC(N)CC1 | > 501 | 130
NCCc1ccc(N2CCOCC2)c(F)c1 | 263 | 154
NCCOc1ccc2ccccc2n1 | > 501 | 244
COc1ccc(C(O)CNC(=O)Nc2nncs2)cc1 (centres undefined) | 380 | 195
CSc1ccccc1NC(=O)CCn1cnc(C#N)n1 | > 501 | > 501
O=C(CS(=O)(=O)Cc1cccc(Cl)c1)NCC1CC1 | 263 | 83.2
O=C(NCC1(CO)CC1)OCc1ccccc1 | 149 | 149
CN(CCCN)c1ccccc1F | 129 | 86.1
COc1ccc(-c2noc(C(C)n3ccnc3)n2)cn1 (centres undefined) | 442 | 300
CCC(CO)Nc1ncc(C(F)(F)F)cc1Cl (centres undefined) | > 501 | > 501
CCOc1ccc(C(=O)Nc2ccnc(C)c2)cn1 | > 501 | 279
